In ChEMBL document CHEMBL1125233, “2,4-Diamino-5-benzylpyrimidines as antibacterial agents. 14. 2,3-Dihydro-1-(2,4-diamino-5-pyrimidyl)-1H-indenes as conformationally restricted analogues of trimethoprim” (J Med Chem, 1991):

Assays:
Dihydrofolate reductase [1] = target: T1, Dihydrofolate reductase (Rattus norvegicus, UniProt Q920D2); test: Inhibitory activity against rat liver dihydrofolate reductase at 10e8 M; conditions: read-out: I50
T1 sequence (Q920D2 whole entry): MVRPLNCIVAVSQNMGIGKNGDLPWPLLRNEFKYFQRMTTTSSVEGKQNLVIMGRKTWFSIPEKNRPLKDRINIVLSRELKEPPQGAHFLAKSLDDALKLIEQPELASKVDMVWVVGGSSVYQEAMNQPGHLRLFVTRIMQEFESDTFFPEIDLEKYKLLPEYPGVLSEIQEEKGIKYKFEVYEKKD

Dihydrofolate reductase [2] = target: Dihydrofolate reductase (Neisseria gonorrhoeae, UniProt P04174); test: Inhibitory activity against Neisseria gonorrhoeae dihydrofolate reductase at 10e8 M; conditions: read-out: I50
Dihydrofolate reductase (Neisseria gonorrhoeae, UniProt P04174), sequence (P04174 whole entry): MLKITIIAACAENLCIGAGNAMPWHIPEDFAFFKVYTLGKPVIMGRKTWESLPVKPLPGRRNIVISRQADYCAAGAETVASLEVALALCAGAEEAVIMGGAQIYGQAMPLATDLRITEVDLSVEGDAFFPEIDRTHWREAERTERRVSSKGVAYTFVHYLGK

Question: For `COc1cc2c(cc1OC)C(c1cnc(N)nc1N)CC2` (stereo not drawn), which IC50 (Dihydrofolate reductase [1]) is on record?
Answer: Its IC50 is 410 µM.

Question: What about the IC50 (Dihydrofolate reductase [2]) of the same compound?
Answer: The IC50 was 9.7 µM.

Question: For `COc1ccc(Cc2cnc(N)nc2N)cc1OC` [DIAVERIDINE], which IC50 (Dihydrofolate reductase [1]) is on record?
Answer: Its IC50 is 70 µM.
